Drawing on PubChem BioAssay AID330 (DTP/NCI, 2004), this text covers T/C for 25 compounds.

The test system of the assay is P388 leukemia ip, CD2F1 mice, survival T/C. Put plainly: NCI In Vivo Anticancer Drug Screen. Data for tumor model P388 Leukemia (intraperitoneal) in CD2F1 (CDF1) mice. To be noted: endpoint: median survival time, higher = longer survival. The gist of the method:
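Mice carrying the transplanted tumor received test compound or vehicle. Survival was recorded in each group, and the value is the treated-group measurement divided by that of the vehicle-treated control group.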

Where [1] appears, read: dose: 50.0 mg/kg/injection, schedule: Q01DX009 (ip), vehicle: saline.
Setting [2] is: dose: 100.0 mg/kg/injection, schedule: Q01DX009 (ip), vehicle: saline.
The mark [3] stands for this setting: dose: 200.0 mg/kg/injection, schedule: Q01DX009 (ip), vehicle: saline.
The mark [4] stands for this setting: dose: 50.0 mg/kg/injection, schedule: Q01DX009 (ip), vehicle: Klucel (hydroxypropylcellulose) (HPC).
Where [5] appears, read: dose: 100.0 mg/kg/injection, schedule: Q01DX009 (ip), vehicle: Klucel (hydroxypropylcellulose) (HPC).
Where [6] appears, read: dose: 200.0 mg/kg/injection, schedule: Q01DX009 (ip), vehicle: Klucel (hydroxypropylcellulose) (HPC).
The mark [7] stands for this setting: dose: 400.0 mg/kg/injection, schedule: Q01DX009 (ip), vehicle: saline.
The mark [8] stands for this setting: dose: 50.0 mg/kg/injection, schedule: Q01DX009 (ip), vehicle: saline with Tween-80.
[9] abbreviates: dose: 100.0 mg/kg/injection, schedule: Q01DX009 (ip), vehicle: saline with Tween-80.
Setting [10] is: dose: 50.0 mg/kg/injection, schedule: Q01DX005 (ip), vehicle: Klucel (hydroxypropylcellulose) (HPC).
[11] abbreviates: dose: 100.0 mg/kg/injection, schedule: Q01DX005 (ip), vehicle: Klucel (hydroxypropylcellulose) (HPC).
The mark [12] stands for this setting: dose: 200.0 mg/kg/injection, schedule: Q01DX005 (ip), vehicle: Klucel (hydroxypropylcellulose) (HPC).
The mark [13] stands for this setting: dose: 60.0 mg/kg/injection, schedule: Q01DX005 (ip), vehicle: saline with Tween-80.
The mark [14] stands for this setting: dose: 120.0 mg/kg/injection, schedule: Q01DX005 (ip), vehicle: saline with Tween-80.
Setting [15] is: dose: 240.0 mg/kg/injection, schedule: Q01DX005 (ip), vehicle: saline with Tween-80.

Where “and” joins values, the source holds several entries; their conditions need not be identical. Equal values may be shown once. Inconclusive results and toxic doses are left out.

Turning to `CN(C)CCC(=O)C(=Cc1ccco1)C(=O)CCN(C)C`, the T/C is, setting by setting: (dose: 60.0 mg/kg/injection, schedule: Q01DX005 (ip), vehicle: saline) 100 % of control; (dose: 120.0 mg/kg/injection, schedule: Q01DX005 (ip), vehicle: saline) 104 % of control; (dose: 240.0 mg/kg/injection, schedule: Q01DX005 (ip), vehicle: saline) 109 % of control.

With `CC(=O)OC(=O)C(NC(=O)C(N)CC(C)C)C(C)C` (stereo not given), the T/C reads like this: under setting [1], 103 % of control; under setting [2], 94 % of control; under setting [3], 100 % of control.

In the case of `CSC(=S)/N=c1\ccccn1C`, the T/C by setting is: (dose: 25.0 mg/kg/injection, schedule: Q04DX002 (ip), vehicle: saline with Tween-80) 102 % of control; (dose: 50.0 mg/kg/injection, schedule: Q04DX002 (ip), vehicle: saline with Tween-80) 99 % of control; (dose: 100.0 mg/kg/injection, schedule: Q04DX002 (ip), vehicle: saline with Tween-80) 102 % of control.

For `O=C1CCc2nc3ccccc3c(=O)n21`, the T/C under setting [4] was 96 % of control; the T/C under setting [5] was 96 % of control; the T/C under setting [6] is 94 % of control; the T/C (dose: 400.0 mg/kg/injection, schedule: Q01DX009 (ip), vehicle: Klucel (hydroxypropylcellulose) (HPC)) is 100 % of control.

Take `CCOc1ccc(Nc2ncnc3nc[nH]c23)cc1CN(CCCl)CCCl`: the T/C was 154 % of control (dose: 0.88 mg/kg/injection, schedule: Q01DX009 (ip), vehicle: saline); 159 % of control (dose: 2.0 mg/kg/injection, schedule: Q01DX009 (ip), vehicle: saline); 122 % of control (dose: 3.0 mg/kg/injection, schedule: Q01DX009 (ip), vehicle: saline).

`COc1cc(N=Nc2ccc([N+](=O)[O-])cc2)c([OH+]C)cc1[N+]#N.COc1cc(N=Nc2ccc([N+](=O)[O-])cc2)c([OH+]C)cc1[N+]#N.[Cl][Zn][Cl]`: the T/C is, setting by setting: under setting [1], 110 % of control and 112 % of control and 117 % of control; under setting [2], 111 % of control and 117 % of control and 119 % of control; under setting [3], 116 % of control and 119 % of control; under setting [7], 107 % of control.

`COC1/C=C/OC2(C)Oc3c(C)c(O)c4c(O)c(c(/C=N/N5C(C)CN(Cc6ccc(O)cc6)CC5C)c(O)c4c3C2=O)NC(=O)C(C)=C/C=C/C(C)C(O)C(C)C(O)C(C)C(OC(C)=O)C1C` (stereo not given): the T/C under setting [8] is 95 % of control; the T/C under setting [9] is 99 % of control; the T/C (dose: 200.0 mg/kg/injection, schedule: Q01DX009 (ip), vehicle: saline with Tween-80) was 96 % of control.

For the compound `Cc1ccc(S(=O)(=O)NN=c2c3ccccc3c3nc4ccccc4nc3c3ccccc23)cc1`, the T/C was 90 % of control under setting [10] and 98 % of control under setting [11].

In the case of `Cc1nc2c3c4c(sc3nc(C)n2n1)CCCC4`, the T/C under setting [10] was 105 % of control, the T/C under setting [11] is 100 % of control and the T/C under setting [12] was 98 % of control.

For the compound `CN1CCN(c2ccc([N+](=O)[O-])c3no[n+]([O-])c23)CC1`, the T/C reads like this: (dose: 2.5 mg/kg/injection, schedule: Q01DX009 (ip), vehicle: saline) 116 % of control; (dose: 20.0 mg/kg/injection, schedule: Q01DX009 (ip), vehicle: saline) 152 % of control.

For `O=C(OCC(Cl)(Cl)Cl)N1CCCCC1`, the T/C is, setting by setting: (dose: 25.0 mg/kg/injection, schedule: Q01DX009 (ip), vehicle: saline with Tween-80) 98 % of control; under setting [8], 92 % of control; under setting [9], 102 % of control.

For `CCCCC1CN=C(OCC)N1` (stereo not given), the T/C was 104 % of control (dose: 6.25 mg/kg/injection, schedule: Q01DX005 (ip), vehicle: saline with Tween-80) and 98 % of control (dose: 12.5 mg/kg/injection, schedule: Q01DX005 (ip), vehicle: saline with Tween-80).

Take `c1ccc(CC2NC(Cc3ccccc3)N3C(Cc4ccccc4)N23)cc1` (stereo not given): the T/C reads like this: (dose: 100.0 mg/kg/injection, schedule: Q04DX003 (ip), vehicle: Klucel (hydroxypropylcellulose) (HPC)) 102 % of control; (dose: 200.0 mg/kg/injection, schedule: Q04DX003 (ip), vehicle: Klucel (hydroxypropylcellulose) (HPC)) 100 % of control; (dose: 400.0 mg/kg/injection, schedule: Q04DX003 (ip), vehicle: Klucel (hydroxypropylcellulose) (HPC)) 93 % of control.

As for `COc1cc(/C=N\N=c2\sc3ccccc3n2C)ccc1OCCO`, the T/C by setting is: under setting [13], 92 % of control; under setting [14], 91 % of control; under setting [15], 91 % of control.

Take `CN(C)C1CS(=O)(=O)OC2=C1CCOc1ccccc12` (stereo not given): the T/C was 97 % of control (dose: 60.0 mg/kg/injection, schedule: Q01DX005 (ip), vehicle: Klucel (hydroxypropylcellulose) (HPC)); 91 % of control (dose: 120.0 mg/kg/injection, schedule: Q01DX005 (ip), vehicle: Klucel (hydroxypropylcellulose) (HPC)); 89 % of control (dose: 240.0 mg/kg/injection, schedule: Q01DX005 (ip), vehicle: Klucel (hydroxypropylcellulose) (HPC)).

In the case of `O/N=C1/CCC/C(=N/O)C1`, the T/C was 100 % of control (dose: 50.0 mg/kg/injection, schedule: Q01DX005 (ip), vehicle: saline with Tween-80); 98 % of control (dose: 100.0 mg/kg/injection, schedule: Q01DX005 (ip), vehicle: saline with Tween-80); 107 % of control (dose: 200.0 mg/kg/injection, schedule: Q01DX005 (ip), vehicle: saline with Tween-80).

Regarding `CS(=O)(=O)CC#N`, the T/C (dose: 7.5 mg/kg/injection, schedule: Q01DX005 (ip), vehicle: saline) is 96 % of control; the T/C (dose: 15.0 mg/kg/injection, schedule: Q01DX005 (ip), vehicle: saline) was 100 % of control; the T/C (dose: 30.0 mg/kg/injection, schedule: Q01DX005 (ip), vehicle: saline) was 95 % of control.

On to `Cc1c2ccncc2c(CN(CCO)CCO)c2c3ccccc3n(C)c12`, for which the T/C is, setting by setting: (dose: 5.0 mg/kg/injection, schedule: Q01DX005 (ip), vehicle: saline) 103 % of control; (dose: 10.0 mg/kg/injection, schedule: Q01DX005 (ip), vehicle: saline) 100 % of control; (dose: 20.0 mg/kg/injection, schedule: Q01DX005 (ip), vehicle: saline) 90 % of control.

With `O=S12(OC(C(F)(F)F)(C(F)(F)F)c3ccccc31)OC(C(F)(F)F)(C(F)(F)F)c1ccccc12`, the T/C under setting [10] is 111 % of control, the T/C under setting [11] was 103 % of control and the T/C under setting [12] is 100 % of control.

`CCCCCCC[As](C)(=O)O`: the T/C by setting is: (dose: 12.5 mg/kg/injection, schedule: Q01DX001 (ip), vehicle: Klucel (hydroxypropylcellulose) (HPC)) 104 % of control; (dose: 25.0 mg/kg/injection, schedule: Q01DX001 (ip), vehicle: Klucel (hydroxypropylcellulose) (HPC)) 111 % of control; (dose: 400.0 mg/kg/injection, schedule: Q01DX001 (ip), vehicle: Klucel (hydroxypropylcellulose) (HPC)) 96 % of control.

Consider `CCOC(=O)CCC(NC(=O)c1ccc(CBr)cc1)C(=O)OCC` (stereo not given), for which the T/C is, setting by setting: (dose: 12.5 mg/kg/injection, schedule: Q01DX009 (ip), vehicle: distilled water + Tween-80) 102 % of control; (dose: 25.0 mg/kg/injection, schedule: Q01DX009 (ip), vehicle: distilled water + Tween-80) 111 % of control; (dose: 50.0 mg/kg/injection, schedule: Q01DX009 (ip), vehicle: distilled water + Tween-80) 107 % of control; (dose: 100.0 mg/kg/injection, schedule: Q01DX009 (ip), vehicle: distilled water + Tween-80) 100 % of control.

For the compound `Nc1cc(C(CC(=O)NO)NO)ccc1[N+](=O)[O-]` (stereo not given), the T/C runs as follows: under setting [4], 94 % of control; under setting [5], 110 % of control; under setting [6], 102 % of control.

On to `Cc1onc(-c2ccccc2)c1C(=O)N/N=C/c1cc(Cl)cc(Cl)c1O`, for which the T/C was 103 % of control under setting [1], 91 % of control under setting [2] and 99 % of control under setting [3].

Turning to `COC(=O)Nc1cn2nc(C)sc2n1`, the T/C under setting [13] was 99 % of control, the T/C under setting [14] is 94 % of control and the T/C under setting [15] was 91 % of control.

`CCCCCC(C)(Cl)CCCCC`: the T/C runs as follows: under setting [2], 101 % of control; under setting [3], 106 % of control; under setting [7], 106 % of control.
